In ChEMBL document CHEMBL1136056, “Discovery of a nonpeptidic small molecule antagonist of the human platelet thrombin receptor (PAR-1)” (Bioorg Med Chem Lett, 2002):

Legend:
[1] = biological target: T1, Proteinase-activated receptor 1 (Homo sapiens, UniProt P25116); assay: Antagonistic activity against thrombin receptor, inhibition of secreted radiolabeled [3H]5-HT from washed human platelets stimulated by 3 uM thrombin receptor activating peptide (TRAP); assay type: functional
T1 sequence (P25116 whole entry): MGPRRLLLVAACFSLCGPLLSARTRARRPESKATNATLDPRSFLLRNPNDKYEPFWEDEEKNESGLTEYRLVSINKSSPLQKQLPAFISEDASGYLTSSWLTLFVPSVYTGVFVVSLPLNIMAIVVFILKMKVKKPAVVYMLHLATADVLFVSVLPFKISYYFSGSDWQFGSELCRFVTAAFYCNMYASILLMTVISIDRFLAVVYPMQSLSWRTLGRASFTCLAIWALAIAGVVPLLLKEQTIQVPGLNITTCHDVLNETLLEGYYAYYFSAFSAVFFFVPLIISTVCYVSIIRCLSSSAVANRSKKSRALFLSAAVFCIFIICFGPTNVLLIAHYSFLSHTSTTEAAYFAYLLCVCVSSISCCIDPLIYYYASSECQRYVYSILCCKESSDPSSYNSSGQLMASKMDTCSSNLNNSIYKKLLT

[2] = biological target: T1, Proteinase-activated receptor 1; assay: Displacement of [3H]SFFLRR-NH2 from human thrombin receptor PAR-1
[3] = biological target: T1, Proteinase-activated receptor 1; assay: Inhibition of secretion of radiolabeled serotonin from washed human platelets stimulated by 1 nM thrombin; assay type: functional
[4] = biological target: Prothrombin (Homo sapiens, UniProt P00734); assay: Compound was tested for thrombin catalytic activity; no inhibition was observed
[5] = biological target: T2, Proteinase-activated receptor 1 (Homo sapiens) (UniProt P25116); assay: Inhibition of secretion of radiolabeled concentration; assay type: functional; conditions: concentration not given here
T2 sequence (whole entry): T1 sequence (P25116 whole entry)

Row | Structure (SMILES) | IC50 [1] [µM] | IC50 [2] [µM] | IC50 [3] [µM] | Ki [4] [µM] | inhibition [5] [%]
1 | COc1cccc(CN(CCCC2CCCCC2)c2cc(-c3ccccc3)no2)c1 | > 10 |  |  |  | 
2 | COc1cccc(CN(CCCN2CCCCC2)c2cc(-c3ccccc3)no2)c1 | 1.6 |  |  |  | 
3 | CC(C)N(CC(O)c1ccc(C#N)cc1)C(=O)Nc1ccccc1 (centres undefined) | 12 |  |  |  | 
4 | c1ccc(-c2cc(N(CCCN3CCCCC3)CC3CCCCC3)on2)cc1 | > 10 |  |  |  | 
5 | CCCCN(CCCN1CCCCC1)c1cc(-c2ccccc2)no1 | > 40 |  |  |  | 
6 | c1ccc(-c2cccc(-c3cc(N(CCCN4CCCCCC4)Cc4ccc5c(c4)OCO5)on3)c2)cc1 | 6.42 |  |  |  | 
7 | c1ccc(-c2cc(N(CCCN3CCCCC3)Cc3ccc4ccccc4c3)on2)cc1 | 2 |  |  |  | 
8 | COc1cccc(CN(CCCN2CCC2)c2cc(-c3ccccc3)no2)c1 | > 10 |  |  |  | 
9 | COc1cccc(CN(CCCN2CCCCCC2)c2cc(-c3ccccc3)no2)c1 | 0.5 |  |  |  | 
10 | c1ccc(-c2ccc(-c3cc(N(CCCN4CCCCCC4)Cc4ccc5c(c4)OCO5)on3)cc2)cc1 | 4.44 |  |  |  | 
11 | c1ccc(CN(CCCN2CCCCC2)c2cc(-c3ccccc3)no2)cc1 | 9 |  |  |  | 
12 | Clc1cccc(CN(CCCN2CCCCC2)c2cc(-c3ccccc3)no2)c1 | 1 |  |  |  | 
13 | c1ccc(-c2cc(N(CCCN3CCCCCC3)Cc3cccc4ccccc34)on2)cc1 | 0.36 |  |  |  | 
14 | c1ccc(-c2cc(N(CCN3CCCCCC3)Cc3cccc4ccccc34)on2)cc1 | 5 |  |  |  | 
15 | COc1cc(OC)cc(-c2cc(N(CCCN3CCCCCC3)Cc3ccc4c(c3)OCO4)on2)c1 | 0.13 | 0.52 | 1.2 |  | 
16 | COc1cccc(CN(CCCN2CCCC2)c2cc(-c3ccccc3)no2)c1 | 3.3 |  |  |  | 
17 | c1ccc(-c2cc(N(CCCCN3CCCCCC3)Cc3cccc4ccccc34)on2)cc1 | 5 |  |  |  | 
18 | COc1ccccc1-c1cc(N(CCCN2CCCCCC2)Cc2ccc3c(c2)OCO3)on1 | 2.22 | 2.21 |  |  | 
19 | COc1cccc(CN(CCCN2CCCCCCC2)c2cc(-c3ccccc3)no2)c1 | > 10 |  |  |  | 
20 | O=[N+]([O-])c1cccc(-c2cc(N(CCCN3CCCCCC3)Cc3ccc4c(c3)OCO4)[o+][n-]2)c1 | 0.83 | 1.02 | > 10 |  | 
21 | c1ccc(-c2cc(N(CCCN3CCCCC3)Cc3cccc4ccccc34)on2)cc1 | 0.5 |  |  |  | 

The remaining lines, values ahead:

Row | IC50 [1] [µM] | IC50 [2] [µM] | IC50 [3] [µM] | Ki [4] [µM] | inhibition [5] [%] | Structure (SMILES)
22 | 0.27 | 1.16 | 0.91 |  |  | Clc1cccc(-c2cc(N(CCCN3CCCCCC3)Cc3ccc4c(c3)OCO4)on2)c1
23 | 0.07 |  | 2.14 |  |  | COc1ccc(-c2cc(N(CCCN3CCCCCC3)Cc3ccc4c(c3)OCO4)on2)cc1F
24 | 0.14 | 0.77 | 1.18 |  |  | Fc1cccc(-c2cc(N(CCCN3CCCCCC3)Cc3ccc4c(c3)OCO4)on2)c1
25 | 0.5 | 2.14 | 2.4 |  |  | Fc1ccc(-c2cc(N(CCCN3CCCCCC3)Cc3ccc4c(c3)OCO4)on2)cc1F
26 | 0.14 | 0.29 | 3.2 |  |  | Cc1ccc(-c2cc(N(CCCN3CCCCCC3)Cc3ccc4c(c3)OCO4)on2)cc1
27 | 1.24 | 0.99 | 4.25 |  |  | Clc1ccc(-c2cc(N(CCCN3CCCCCC3)Cc3ccc4c(c3)OCO4)on2)cc1
28 | 0.09 | 0.15 | 0.51 | > 10 |  | Fc1cc(F)cc(-c2cc(N(CCCN3CCCCCC3)Cc3ccc4c(c3)OCO4)on2)c1
29 | 0.13 | 0.26 | 2.24 |  |  | COc1cccc(-c2cc(N(CCCN3CCCCCC3)Cc3ccc4c(c3)OCO4)on2)c1
30 | 3.2 |  |  |  |  | CS(=O)(=O)c1ccc(-c2cc(N(CCCN3CCCCCC3)Cc3ccc4c(c3)OCO4)on2)cc1
31 | 0.09 | 0.47 | 0.88 |  |  | Ic1ccc(-c2cc(N(CCCN3CCCCCC3)Cc3ccc4c(c3)OCO4)on2)cc1
32 | 0.4 | 1.2 | 4.67 |  |  | COc1ccc(-c2cc(N(CCCN3CCCCCC3)Cc3ccc4c(c3)OCO4)on2)cc1OC
33 | 0.35 | 0.6 | 1.97 |  |  | N#Cc1cccc(-c2cc(N(CCCN3CCCCCC3)Cc3ccc4c(c3)OCO4)on2)c1
34 | 0.6 |  |  |  |  | c1ccc(-c2cc(N(CCCN3CCCCC3)Cc3ccc4c(c3)OCO4)on2)cc1
35 | 0.43 |  | > 4 |  |  | CSc1ccc(-c2cc(N(CCCN3CCCCCC3)Cc3ccc4c(c3)OCO4)on2)cc1
36 | 0.13 | 0.25 |  |  | 60 | COc1ccc(-c2cc(N(CCCN3CCCCCC3)Cc3ccc4c(c3)OCO4)on2)cc1
37 | 2.99 |  |  |  |  | Clc1ccccc1-c1cc(N(CCCN2CCCCCC2)Cc2ccc3c(c2)OCO3)on1
38 | 1.31 |  | > 10 |  |  | Fc1ccc(-c2cc(N(CCCN3CCCCCC3)Cc3ccc4c(c3)OCO4)on2)cc1
39 | 3.7 |  |  |  |  | C[S+]([O-])c1ccc(-c2cc(N(CCCN3CCCCCC3)Cc3ccc4c(c3)OCO4)on2)cc1 (centres undefined)
40 | 3.22 |  |  |  |  | Cc1ccccc1-c1cc(N(CCCN2CCCCCC2)Cc2ccc3c(c2)OCO3)on1
41 | 0.12 | 0.89 |  |  | 60 | Cc1cccc(-c2cc(N(CCCN3CCCCCC3)Cc3ccc4c(c3)OCO4)on2)c1
